# Like-named read-outs stand apart in the source and are kept apart here.
# Tests used:
# [1] = tested on: farnesylated proteins F1, F2 and F3 in Met18b-2 cells; assay: Inhibition of intracellular farnesylation in intact Met18b-2 cells, Triton-soluble proteins F1, F2, F3; type: cell-based, Chinese hamster; conditions: for EC90: Cricetulus griseus, read-out: EC 90% "B isomer"
# Source text: To study farnesylation in intact cells we used Met18b-2 cells, a line of Chinese hamster ovary (CHO) cells that takes up [3H]mevalonate efficiently (see Faust, J., and Krieger, M. J. Biol. Chem. 262, 1966 (1987)) owing to the production of a mevalonate transport protein (see Kim, C. M., Goldstein, J. L., Brown, M. S. J. Biol. Chem. 267, 23113 (1992)). The [3H]mevalonate is converted by the cells into [3H]farnesyl pyrophosphate and [3H]geranylgeranyl pyrophosphate, which are then attached to proteins (Kim, C. M., Goldstein, J. L., Brown, M. S. J. Biol. Chem. 267, 23113 (1992)). In the assay, stock cultures of Met18b-2 cells were seeded at a density of 3-105 cells per 60 mm dish in 3 ml of medium A (Dulbecco's modified Eagle medium/Ham's F12 medium (1:1, v/v) containing 100 U/ml penicillin and 100 μg/ml streptomycin) supplemented with 5% (v/v) fetal calf serum (FCS). On day 3, each monolayer was refed with 1 ml medium A supplemented with 1% FCS (dialyzed against 0.15 M NaCl). At this point the cells were treated with 100 μM compactin (see Brown, M. S., Faust, J. R., Goldstein, J. L., Kaneko, I., and Endo, A. J. Biol. Chem. 253, 1121 (1978)) which blocks the synthesis of unlabeled mevalonate within the cells. Each compound was dissolved at 25 mM in DMSO/10 mM DTT immediately before use and 10 μl of this solution added directly. After 2 hr incubation at 37° C., each monolayer received 100 μCi [3H]mevalonate (60 Ci/mmol, American Radiolabeled Chemicals, Inc.) added in 100 μl of the medium A, and the incubation continued for 4 hr. The cells were harvested by rinsing three times with 3 ml of 50 mM Tris-HCl/0.15 M NaCl (pH 7.5). 300 μl of lysis buffer (0.5X Dulbecco's phosphate-buffered saline containing 1% Triton X-100, 5 μg/ml leupeptin, 5 μg/ml pepstatin, 0.5 mM phenylmethylsulfonyl fluoride, and 0.05 U/ml aprotinin) was added to each monolayer. After incubation on ice for 5 mon, the lysates were centrifuged 30 sec in a microfuge at 12,000 g. The resulting supernatant was tranferred to a new tube, and each pellet was resuspended in 60 μl of lysis buffer. Protein concentrations were determined using the BCA protein assay reagent (Pierce) according to the manufacturer's instructions. Detergent-soluble (supernatant) and -insoluble (pellet) samples were mixed with 2X SDS sample buffer (see Laemmli, U. K. Nature 227, 680 (1970)) and heated at 95° C. for 5 min before electrophoresis. Each lane contained 90 μg protein, and was run on a 12.5% SDS-polyacrylamide gel. The gel was dried, treated with ENTENSIFY (NEN-DuPont), and exposed to Kodak XOMAT-AR film for 9 h at -80° C. to allow visualization of all prenylated proteins. Migration of [14C]methylated molecular weight standards (Amersham) were used as markers.
# The results of this assay are shown in FIG. 3, using a final concentration of 250 μM for each inhibitor. […] As shown in the figure, none of the control peptides or control benzodiazepine-peptideomimetics altered the prenylation of proteins in intact cells.
# Using the same cells and procedures followed above for Example 125, we measured the dose dependence upon the inhibition of farnesylation in intact cells. […] Compound 37B inhibited the famesylation of F1-3 detectably at 10 μM, and almost completely at 25 μM.
# In this manner, it is possible to obtain data regarding the comparative potency of these inhibitors upon the level of intracellular farnesylation. We have chosen to report the EC90% values for these inhibitors as the concentration required for a reduction in the Triton- soluble labelling (denoted F-1, F-2, and F-3) to 90% of control cells (untreated).
# CAAX farnesyltransferase = CAAX farnesyltransferase (Rattus norvegicus, UniProt Q02293+Q04631); assay: In vitro inhibition of CAAX farnesyltransferase; type: biochemical; design: purified to homogeneity from rat brain homogenates; from tissue; host or cells: rat brain; alternatively recombinant enzyme from a baculovirus expression system; conditions: Table D
# How it was run: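 Native or recombinant (baculovirus-infected cells, Q-Sepharose purified) farnesyltransferase incubated 30 min at 37 °C. [3H]farnesyl transfer to p21H-ras measured by SDS/trichloroacetic acid precipitation, nitrocellulose filtration and scintillation counting.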
# [2] = diastereomer B, read-out: EC50 (μM) "B"
# [3] = diastereomer A, read-out: EC50 (μM) "A"
# Chain of CAAX farnesyltransferase (Q02293 whole entry, one chain of several): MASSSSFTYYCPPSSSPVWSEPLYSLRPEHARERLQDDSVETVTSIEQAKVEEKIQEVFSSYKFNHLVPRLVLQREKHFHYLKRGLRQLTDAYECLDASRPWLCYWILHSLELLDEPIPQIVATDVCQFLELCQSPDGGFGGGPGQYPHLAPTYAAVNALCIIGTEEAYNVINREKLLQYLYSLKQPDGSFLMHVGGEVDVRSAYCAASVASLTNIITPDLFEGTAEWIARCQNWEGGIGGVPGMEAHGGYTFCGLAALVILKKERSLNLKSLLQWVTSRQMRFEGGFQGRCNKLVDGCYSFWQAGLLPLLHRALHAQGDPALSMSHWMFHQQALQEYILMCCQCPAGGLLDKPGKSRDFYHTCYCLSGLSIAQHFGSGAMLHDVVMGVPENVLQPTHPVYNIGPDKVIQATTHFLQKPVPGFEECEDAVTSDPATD
SMILES,"relative potency in intact cells ([1]; dose dependence, FIG. 4, compared with 27B and 37B)",EC90 [1],EC50 (CAAX farnesyltransferase; [2]),EC50 (CAAX farnesyltransferase; [3]),"EC50 (CAAX farnesyltransferase; EC50 (μM) ""B"", diastereomer B)"
"CSCC[C@H](NC(=O)CN1C(=O)C(N(C)C(=O)[C@@H](N)CS)N=C(c2ccccc2)c2ccccc21)C(N)=O (single isomer, unassigned) [33B, N-[[3-[(2-amino-3-mercapto-1-oxopropyl)methylamino]-2,3-dihydro-2-oxo-5phenyl-1H-1,4-benzodiazepin-1-yl]acetyl]-L-methionine amide]",of intermediate potency,,,,
"COC(=O)c1cccc(CN2C(=O)C(N(C)C(=O)[C@@H](N)CSSC(C)(C)C)N=C(c3ccccc3)c3cc(Cl)ccc32)c1 (stereo partly drawn) [compound 99, N-[[3-[(2-amino-3-tert-butylthiomercapto-1-oxopropyl)methylamino]-2,3-dihydro-2-oxo-5-phenyl-7-chloro-1H-1,4-benzodiazepin-1-yl]methyl]-3-carboxymethylbenzene]",,30 µM,0.38 µM,,
"COC(=O)c1cccc(CN2C(=O)C(N(C)C(=O)[C@@H]3CSC(C)N3)N=C(c3ccccc3)c3cc(Cl)ccc32)c1 (stereo partly drawn) [compound 100, N-[[3-[(2-methylthiazolidine-4-carboxyl)methylamino]-2,3-dihydro-2-oxo-5-phenyl-7-chloro-1H-1,4-benzodiazepin-1-yl]methyl]-3-carboxymethylbenzene]",,30 µM,0.034 µM,0.52 µM,
"CN(C(=O)[C@@H](N)CS)C1N=C(c2ccccc2)c2cc(Cl)ccc2N(Cc2ccc(C#N)cc2)C1=O (stereo partly drawn) [compound 101, N-[[3-[(2-amino-3-mercapto-1-oxopropyl)methylamino]-2,3-dihydro-2-oxo-5-phenyl-7-chloro-1H-1,4-benzodiazepin-1-yl]methyl]4-benzonitrile]",,20 µM,0.0009 µM,3 µM,
"CN(C(=O)[C@@H](N)CS)C1N=C(c2ccccc2)c2cc(Cl)ccc2N(Cc2ccc(C(F)(F)F)cc2)C1=O (stereo partly drawn) [compound 106, N-[[3-[(2-amino-3-mercapto-1-oxopropyl)methylamino]-2,3-dihydro-2-oxo-5-phenyl-7-chloro-1H-1,4-benzodiazepin-1-yl]methyl]-4-trifluoromethylbenzene]",,50 µM,0.018 µM,0.65 µM,
"CN(C(=O)[C@@H](N)CS)C1N=C(c2ccccc2)c2cc(Cl)ccc2N(Cc2ccc(F)cc2)C1=O (stereo partly drawn) [compound 108, N-[[3-[(2-amino-3-mercapto-1-oxopropyl)methylamino]-2,3-dihydro-2-oxo-5-phenyl-7-chloro-1H-1,4-benzodiazepin-1-yl]methyl]-4-fluorobenzene]",,50 µM,0.0018 µM,0.0018 µM,
"CCOC(=O)[C@H](CCSC)NC(=O)CN1C(=O)C(N(C)C(=O)C2CSC(C)N2)N=C(c2ccccc2)c2ccccc21 (stereo partly drawn) [compound 109, N-[[3-[(2-methylthiazolidine-4-carboxyl)methylamino]-2,3-dihydro-2-oxo-5-phenyl-1H-1,4-benzodiazepin-1-yl]acetyl]-L-methionine ethyl ester]",,10 µM,0.1 µM,3.1 µM,
"COC(=O)[C@H](CCSC)NC(=O)CN1C(=O)C(N(C)C(=O)[C@@H](N)CSSC(C)(C)C)N=C(c2ccccc2)c2ccccc21 (stereo partly drawn) [compound 110, N-[[3-[(2-amino-3-tert-butylthiomercapto-1-oxopropyl)methylamino]-2,3-dihydro-2-oxo-5-phenyl-1H-1,4-benzodiazepin-1-yl]acetyl]-L-methionine methyl ester]",,10 µM,> 1.5 µM,> 1.5 µM,
"CSCC[C@H](NC(=O)CN1C(=O)C(N(C)C(=O)[C@@H](N)CSSC(C)(C)C)N=C(c2ccccc2)c2cc(Cl)ccc21)C(=O)OC1CCCCC1 (stereo partly drawn) [compound 111, N-[[3-[(2-amino-3-tert-butylthiomercapto-1-oxopropyl)methylamino]-2,3-dihydro-2-oxo-5-phenyl-7-chloro-1H-1,4-benzodiazepin-1-yl]acetyl]-L-methionine cyclohexyl ester]",,2 µM,1.4 µM,> 3 µM,
"CSCC[C@H](NC(=O)CN1C(=O)C(N(C)C(=O)[C@@H](N)CSSC(C)(C)C)N=C(c2ccccc2)c2ccccc21)C(=O)OC1CCCCC1 (stereo partly drawn) [compound 112, N-[[3-[(2-amino-3-tert-butylthiomercapto-1-oxopropyl)methylamino]-2,3-dihydro-2-oxo-5-phenyl-1H-1,4-benzodiazepin-1-yl]acetyl]-L-methionine cyclohexyl ester]",,4 µM,0.2 µM,,
"CC(C)C[C@H](NC(=O)CN1C(=O)C(N(C)C(=O)[C@@H](N)CSSC(C)(C)C)N=C(c2ccccc2)c2cc(Cl)ccc21)c1nnn[nH]1 (stereo partly drawn) [compound 114, N-[[3-[(2-amino-3-tert-butylthiomercapto-1-oxopropyl)methylamino]-2,3-dihydro-2-oxo-5-phenyl-7-chloro-1H-1,4-benzodiazepin-4-yl]acetyl]-L-leucine tetrazole]",,30 µM,0.12 µM,,
"CN(C(=O)[C@@H](N)CSSC(C)(C)C)C1N=C(c2ccccc2)c2cc(Cl)ccc2N(CC(=O)N[C@@H](Cc2ccccc2)C(N)=O)C1=O (stereo partly drawn) [compound 115, N-[[3-[(2-amino-3-tert-butylthiomercapto-1-oxopropyl)methylamino]-2,3-dihydro-2-oxo-5-phenyl-7-chloro-1H-1,4-benzazepin-1-yl]acetyl]-L-phenylalanine amide]",,50 µM,0.1 µM,> 3 µM,
"CSCC[C@H](NC(=O)CN1C(=O)C(N(C)C(=O)[C@@H](N)CSSC(C)(C)C)N=C(c2ccccc2)c2cc(Cl)ccc21)c1nnn[nH]1 (stereo partly drawn) [compound 116, N-[[3-[(2-amino-3-tert-butylthiomercapto-1-oxopropyl)methylamino]-2,3-dihydro-2-oxo-5-phenyl-7-chloro-1H-1,4-benzodiazepin-1-yl]acetyl]-L-methionine tetrazole]",,60 µM,0.03 µM,> 3 µM,
"CN(C(=O)[C@@H](N)CSSC(C)(C)C)C1N=C(c2ccccc2)c2ccccc2N(CC(=O)N[C@@H](Cc2ccccc2)C(=O)OC2CCCCC2)C1=O (stereo partly drawn) [compound 117, N-[[3-[(2-amino-3-tert-butylthiomercapto-1-oxopropyl)methylamino]-2,3-dihydro-2-oxo-5-phenyl-1H-1,4-benzodiazepin-1-yl]acetyl]-L-phenylalanine cyclohexyl ester]",,3 µM,,,1.6 µM
"CN(C(=O)[C@@H](N)CSSC(C)(C)C)C1N=C(c2ccccc2)c2cc(Cl)ccc2N(CC(=O)N[C@@H](Cc2ccccc2)c2nnn[nH]2)C1=O (stereo partly drawn) [compound 119, N-[[3-[(2-amino-3-tert-butylthiomercapto-1-oxopropyl)methylamino]-2,3-dihydro-2-oxo-5-phenyl-7-chloro-1H-1,4-benzodiazepin-1-yl]acetyl]-L-phenylalanine tetrazole]",,30 µM,0.017 µM,> 3 µM,
